Reference: patent publication US20030203969A1, “Pharmaceutically active aromatic guanylhydrazones” (priority 2000, published 2003)

Experiments:
[1] = test system: omni-drug-resistant HIV-1; experiment: Inhibition of omni-drug-resistant HIV-1 in PM1 cells (p24); format: cell-based
Method: PM1 cells were infected with an “omni-drug-resistant HIV-1” (recombinant HIV-1 NL4-3 in which the Protease gene and the 5′ part of the Reverse Transcriptase gene was replaced by the corresponding sequences from a omni-drug-resistant clinical isolate, resistant to all currently available anti-HIV drugs. Infected cells were incubated with Compound No. 4 at a concentration of 250, 500 and 1000 nM or DMSO (control). The culture medium was changed every third day. Cell viability (Trypan-blue staining), cell counts and p24 levels were determined at day 6 and 12.
At day 12 of infection, the virus replicated vigorously in untreated cultures. Numbers describe percent inhibition of HIV-1 replication as compared to control experiments.

HHV8 = experiment: HHV-8 replication in TPA-induced BCBL-1 cells (TaqMan PCR); format: cell-based, Human herpesvirus 8
Method: The human BCBL-1 cell line is available through the AIDS Reference and Reagent Program (Cat.No. 3233). This cell line was derived from a body cavity-based lymphoma latently infected with HHV-8. Culturing these cells in the presence of phorbol ester induces a lytic infection cycle, resulting in the release of viral particles into the medium. Compound efficacy in this proposed assay is determined using TaqMan PCR technology, and compound toxicity is measured by addition of Promega's Cell Titer Aqueous One Solution (metabolic dye).
7. BCBL-1 cells will be counted by the trypan blue dye exclusion method, and the cell count/ml will be determined. Cells will be pelleted by centrifugation and washed once with PBS to minimize the basal level of virus released from untreated cells which spontaneously enter the lytic cycle and release virus.
8. Cells will be resuspended in fresh media and adjusted to the appropriate cell density. Cells will then be plated in the interior wells of 96-well round-bottom microtiter plates in a volume of 50 μl per well.
9. […]
11. A standard curve prepared from known copy numbers of DNA isolated from BCBL-1 cells and amplified will be run with each plate in order to quantitate the DNA copy number in each original sample. The efficacy of the compound will be determined by comparing DNA copy numbers from test wells with those of control wells.

[2] = test system: Respiratory Syncytial Virus (Long); format: cell-based
Method: (§1) A cytoprotection assay procedure using MTS is employed to evaluate compounds for antiviral activity against Respiratory Syncytial Virus (Long) in Vero (African green monkey, ATCC Cat. No. CCL-81) cells. The cells are pre-grown overnight at 37° C. (2×10^4/well in 96 well tissue culture plates) with 10% fetal Bovine serum containing Minimum Essential Medium. The positive control for the assay is Interferon-Gamma/Ribavirin. The infection medium contains reduced serum levels (2% FBS).
Using half log dilutions with high test starting at 100 μg/ml the drug dilutions are made and added to triplicate cultures in 0.1 ml volume and pre-titrated virus suspension is also added in 0.1 ml volume. Cell control containing medium alone, virus controls containing medium and virus, the drug toxicity controls containing medium and each drug concentrations are run simultaneously with the test samples. […] CPE inhibition is determined by dye uptake procedure (Celltiter-MTS). Celltiter reagent contains a novel tetrazolium (MTS) compound and an electron coupling reagent phenazine ethosulfate (PES). MTS-tetrazolium is bioreduced by cells into a colored formazan product that is soluble in tissue culture medium. This conversion is accomplished by NADPH or NADH produced by dehydrogenase enzymes in metabolically active cells. The amount of soluble formazan produced by cellular reduction of the MTS is measured by the absorbance at 490 nm. The quantity of formazan product as measured by the amount of 490 nm absorbance is directly proportional to the number of living cells in the culture thus allowing the rapid quantitative analysis of the inhibition of virus-induced cell killing by the test substances. […]
The inhibitory drug concentration which reduces the viral replication by 95% (IC95) and the minimum drug concentration which inhibits cell growth by 95% (TC95) are calculated by using a regression analysis program for semilog curve fitting. A therapeutic (selectivity) index (TI) for compound No. 4 is determined by dividing the TC95 by the IC95.

Vero cells = test system: Vero cells
Method: as §1
Using half log dilutions with high test starting at 100 μg/ml the drug dilutions are made and added to triplicate cultures in 0.1 ml volume and pre-titrated virus suspension is also added in 0.1 ml volume. […] CPE inhibition is determined by dye uptake procedure (Celltiter-MTS). […] The amount of soluble formazan produced by cellular reduction of the MTS is measured by the absorbance at 490 nm. The quantity of formazan product as measured by the amount of 490 nm absorbance is directly proportional to the number of living cells in the culture thus allowing the rapid quantitative analysis of the inhibition of virus-induced cell killing by the test substances. […]
The inhibitory drug concentration which reduces the viral replication by 95% (IC95) and the minimum drug concentration which inhibits cell growth by 95% (TC95) are calculated by using a regression analysis program for semilog curve fitting. […]

CC(=NNC(=N)N)c1cc(NC(=O)CCCCCCCCC(=O)Nc2cc(C(C)=NNC(=N)N)cc(C(C)=NNC(=N)N)c2)cc(C(C)=NNC(=N)N)c1 [Compound 4, N,N′-bis (3,5-diacetylphenyl) decane diamide tetrakis (amidinohydrazone)]
percent inhibition of HIV-1 replication as compared to control ([1]; omni-drug-resistant HIV-1, 0.25 μM, d6): 15%
percent inhibition of HIV-1 replication as compared to control ([1]; omni-drug-resistant HIV-1, 0.25 μM, d12): 64%
percent inhibition of HIV-1 replication as compared to control ([1]; omni-drug-resistant HIV-1, 0.5 μM, d6): 30%
percent inhibition of HIV-1 replication as compared to control ([1]; omni-drug-resistant HIV-1, 0.5 μM, d12): 95%
percent inhibition of HIV-1 replication as compared to control ([1]; omni-drug-resistant HIV-1, 1.0 μM, d6): 58%
percent inhibition of HIV-1 replication as compared to control ([1]; omni-drug-resistant HIV-1, 1.0 μM, d12): 97%
Comments (HHV8; HHV8, BCBL-1 cells): Active
IC50 (HHV8; chronically HHV8-infected BCBL-1 cells): 2300 nM
Comment ([2]; RSV, at the IC95/TC95 level): Active
IC50 ([2]; Vero cells newly infected with RSV): 1460 nM
IC95 ([2]; reduces the viral replication by 95%): 2960 nM
CC50 (Vero cells): 8680 nM
TC95 (Vero cells): 30200 nM
